Here are results for nine molecules from patent US20070259952A1 (H. LUNDBECK A/S, priority 2006, published 2007).

The test system of experiment [1] is mesocorticolimbic dopaminergic neurons in the VTA. As to conditions: cited from earlier work; for firing rate of mesocorticolimbic dopaminergic neurons in the VTA: Prisco and Eposito 1995, Di Masico et al 1998.
Experiment [2] relates to dopamine cells in the VTA. Briefly: In vivo assessment of dopamine neuron firing in rat ventral tegmental area. As to the method:
In vivo assessment of dopamine neuron firing in rat ventral tegmental area was conducted as described by Schilstrom et al. (Neuroscience 125:957-64, 2004). Briefly, male Sprague Dawley rats (250-300 g) were anesthetized with chloral hydrate (400 mg/kg i.p.) and mounted in a stereotactic frame. Anesthesia was maintained throughout the experiment with periodical injections of chloral hydrate and body temperature was kept at 37° C. with a rectal thermometer connected to an electrical heating pad. Recording electrodes were pulled in a Narishige vertical puller from borosilicate glass capillaries with outer and inner diameters of 1.50 and 1.17 mm, respectively, and filled with 2% Pontamine Sky Blue in 2 M NaCl. […] The rat was killed with an overdose of anesthetic, and the brain was removed and placed in 25% sucrose 10% paraformaldehyde solution. Sections of the VTA were cut ([…]) and stained with Neutral Red and the recording sites were verified by light microscopy.

Experiment [3] relates to NMDA-induced currents in pyramidal cells of the medial prefrontal cortex. Briefly: Facilitation of NMDA-induced currents in pyramidal cells of the medial prefrontal cortex in vitro (brain slices, voltage-clamp). In kind it is cell-based, rat.

Like-named read-outs stand apart in the source and are kept apart here.

As for `COCCCC/C(=N\OCCN)c1ccc(C(F)(F)F)cc1` [fluvoxamine], the “firing rate of mesocorticolimbic dopaminergic neurons in the VTA” value in experiment [1] was “slight inhibition”.

`CNCCC(Oc1ccc(C(F)(F)F)cc1)c1ccccc1` (stereo not shown) [fluoxetine]: the “firing rate of mesocorticolimbic dopaminergic neurons in the VTA” value in experiment [1] is reported as “slight inhibition”. As for `CN(C)CCC[C@@]1(c2ccc(F)cc2)OCc2cc(C#N)ccc21` [escitalopram, (S)-1-[3-(dimethylamino)propyl]-1-(4-fluorophenyl)-1,3-dihydro-5-isobenzofurancarbonitrile], the “effect on firing rate of dopamine cells in the VTA” value in experiment [2] (320 μg/kg, FIG. 1) is listed as “elevates firing rate statistically significant”; in experiment [2] (higher dose 640 μg/kg, FIG. 1) it was “appears to be maintained”. For the same molecule, the “effect on burst firing of dopaminergic cells in the VTA” value in experiment [2] (doses equal to and above 160 μg/kg, FIG. 2) is “increases burst firing statistically significant dose-dependently”. Also, the burst difference result in experiment [2] (highest dose tested 640 μg/kg, FIG. 2) was “about 20%”. For `Fc1ccc([C@@H]2CCNC[C@H]2COc2ccc3c(c2)OCO3)cc1` [paroxetine], in experiment [1], the “firing rate of mesocorticolimbic dopaminergic neurons in the VTA” value is “slight inhibition”. Take `Cc1nc2n(c(=O)c1CCN1CCC(c3noc4cc(F)ccc34)CC1)CCCC2` [risperidone]: in experiment [3] (bath application, holding potential −60 mV, FIG. 3), the “effect on NMDA-induced currents in pyramidal cells of the prefrontal cortex” value was “increase NMDA-induced currents”. As for `CCOc1ccccc1OC(c1ccccc1)C1CNCCO1` (stereo not shown) [reboxetine], the “effect on NMDA-induced currents in pyramidal cells of the prefrontal cortex” value in experiment [3] was “increases NMDA-induced currents”. Moreover, in experiment [1] (Linner et al, 2001), the “excitability and burst firing of dopaminergic neurons in the VTA” value was “enhances the excitability of dopaminergic neurons in the VTA with a preferential activation of their burst firing mode”. Regarding `CN[C@H]1CC[C@@H](c2ccc(Cl)c(Cl)c2)c2ccccc21` [sertraline], in experiment [1], the “firing rate of mesocorticolimbic dopaminergic neurons in the VTA” value was “slight inhibition”. Take `CN(C)CCC[C@]1(c2ccc(F)cc2)OCc2cc(C#N)ccc21` [R-citalopram]: in experiment [2] (320 μg/kg with escitalopram 320 μg/kg, FIG. 2), the “effect on the escitalopram-induced increase of burst firing” value is reported as “significantly inhibits the effect of escitalopram”. Besides, in experiment [2] (given alone, dose not stated, FIG. 1), the “effect on firing rate of dopamine cells in the VTA” value is listed as “unaffected”. Further, the “effect on burst firing of dopaminergic cells in the VTA” value in experiment [2] (given alone, FIG. 2) is “no effect on burst firing”. For the same molecule, the “effect on the escitalopram-induced increase of firing rate” value in experiment [2] (pre-treatment with 320 μg/kg before escitalopram 320 μg/kg, FIG. 1) was “blocked”.

Take `CN(C)CCCC1(c2ccc(F)cc2)OCc2cc(C#N)ccc21` (racemic) [citalopram]: the Emax in experiment [2] (Rattus norvegicus, Neuron, FIG. 2, read-out: maximal response, burst difference) is ~10%.
